For one series, the system named is Raw 264.7 cells. The experiment in a line: Determination of cell vitality by MTT method. The class given is cell-based, mouse. The settings on record: 1.37 to 12.37 μg/ml, 2 h medicine, then LPS 30 μg/ml 24 h, FIG. 1. The procedure:
(§1) Medicine was first dissolved in a small amount of DMSO, and then diluted to a certain concentration with DMEM, so that final concentration of DMSO was less than 1%.
(§2) Raw 264.7 mouse macrophages were incubated in DMEM medium containing 10% heat-inactivated fetal bovine serum (FBS), 10 U/mL penicillin sodium and 100 μg/ml streptomycin, and incubated in 37° C., 5% CO2 incubator.
Cell vitality was determined by MTT method. Cell suspension liquid was inoculated into a 96-well plate (1*104 holes/pore) to incubate for 24 hours and then synchronize for 24 hours. The cells were treated with different concentration of medicine for 2 hours, and then stimulated by LPS (30 μg/ml) for 24 hours. Original medium was abandoned, and MTT (0.5 mg/ml) was added into each hole for 4 hours. The medium was then abandoned and DMSO ([…]) was added into each hole. Absorbance was measured at 490 nm after shaking for 10 min.

In the next series the test system is NO. The experiment in a line: Determination of NO concentration in LPS-stimulated Raw 264.7 cells (mouse NO kit). The class given is cell-based. The settings on record: 6.88±12.38 μg/ml (6.88 to 12.38 μg/mL), LPS 30 μg/ml 24 h, dose-dependent. On the procedure: as §1, §2
(§3) Raw 264.7 cells were inoculated on a 96-well plate for 24 hours, then synchronized for 24 hours. The cells were treated with different concentration of medicine for 2 hours, and then stimulated with LPS (30 μg/ml) for 24 hours. Lastly, supernatant was collected and centrifuged for 5 minutes at 10,000 rpm. The supernatant was separated and stored at −80° C. for reserve. The concentration of NO was determined by mouse NO kit.

The test system of a further series is TNF-α. In words: Measurement of inflammatory factor TNF-α in LPS-stimulated Raw 264.7 cells (ELISA kit). It is filed as cell-based, mouse. The settings on record: 6.88±12.38 μg/ml (6.88 to 12.38 μg/mL), LPS 30 μg/ml 24 h, p<0.05, dose-dependent, FIG. 3. On the procedure: (§4) Mouse IL-1-beta ELISA kit, batch number: 2014/06 (96T), Mouse IL-6 ELISA kit, batch number: 2014/06 (96T), Mouse tumor necrosis factor-alpha (TNF-α) ELISA kit, batch number: 2014/06 (96T), Mouse NO ELISA Kit Batch number: 2014/10 (96T), mouse hydroxyl radical (OH) ELISA detection kit, batch number: 2014/10 (96T).
as §3
(§5) Sample prepared in at 1.5 was used for subsequent inflammatory factor determination. The amount of TNF-α, IL-1β, IL-6 produced by cells was measured by mouse TNF-α, IL-1β, and IL-6 kit.
Background: ELISA stands for enzyme-linked immunosorbent assay.

A further series concerns IL-1β. The experiment in a line: Measurement of inflammatory factor IL-1β in LPS-stimulated Raw 264.7 cells (ELISA kit). The settings on record: at various concentrations; LPS 30 μg/ml 24 h; p>0.05; FIG. 4. The class given is cell-based, mouse. On the procedure:
as §4, §3, §5

The next series deals with IL-6. The experiment in a line: Measurement of inflammatory factor IL-6 in LPS-stimulated Raw 264.7 cells (ELISA kit). It is filed as cell-based, mouse. The note with it: at various concentrations; LPS 30 μg/ml 24 h; p>0.05; FIG. 5. On the procedure:
as §4, §3, §5

A further series deals with hydroxyl radical (OH). The experiment in a line: Determination of OH concentration in LPS-stimulated Raw 264.7 cells (OH kit). It is filed as cell-based, mouse. The settings on record: 4.13-12.38 μg/ml, LPS 30 μg/ml 24 h, dose-dependent. The procedure:
as §4, §3
Sample prepared at 1.5 was used for OH factor determination. The concentration was determined by OH kit.

“Also recorded” adds a separate entry of the source.

Take `O=C(CCO)Oc1cc(O)c(OC2OC(CO)C(O)C(O)C2O)c(O)c1` (stereo not drawn) [MM-125]: in the series on Raw 264.7 cells, the “effect on vitality of Raw 264.7 cells” value is recorded as “no significant effect”. Further, the “inhibition of the increase of NO concentration induced by LPS” value in the series with NO (FIG. 2) is “significantly inhibit; also recorded: significant inhibitory effects”; in the series on NO (FIG. 2, listed as phenylpropanoid compound), “significant effect on inhibiting”. Besides, the results for the “inhibition of production of TNF-α in Raw 264.7 cells” value with TNF-α and with TNF-α (listed as phenylpropanoid compound) were “significantly inhibit; also recorded: certain level of inhibiting effects” and “significantly inhibit”, respectively. Further, the “inhibition of production of IL-1β in Raw 264.7 cells” value with IL-1β is listed as “could not inhibit; also recorded: no obvious inhibitory effect”. Besides, in the series on IL-6, the “inhibition of production of IL-6 in Raw 264.7 cells” value is “could not inhibit; also recorded: no obvious inhibitory effect”. Also, the “inhibition of the increase of OH concentration induced by LPS” value in the series with hydroxyl radical (OH) (FIG. 6) was “significantly inhibit; also recorded: significant inhibitory effects”; in the series on hydroxyl radical (OH) (FIG. 6, listed as phenylpropanoid compound), “significant effect on inhibiting”.

The record behind these values is patent publication US10329316B2, “Phenylpropanoid compound and preparation method and use thereof” (QIANJIN PHARMACEUTICAL CO., LTD., priority 2016, dated 2019).
